Experimental data published in patent US20110212053A1, “PHOSPHATIDYLINOSITOL 3 KINASE INHIBITORS” (priority 2008, published 2011).

Columns and labels:
[1] = tested on: U-87 MG cells; experiment: CellTiter-GLO cell proliferation assay, U-87 MG; format: cell-based; settings: Homo sapiens, preliminary experiments, no unit printed with the values (paragraph speaks of nM), read-out: mean concentration for 50% inhibition of U-87 MG cell proliferation
Description: Compound Preparation: Cell-based assays: 1000× stocks of inhibitors were prepared in DMSO. A 10 mM master stock was prepared and all other stocks were generated by serial dilution of the master stock in DMSO. The final concentration of DMSO in cell-based assays was 0.1% (v/v).
CellTiter-GLO® Cell Proliferation Assay: CellTiter-GLO® (Promega) quantifies cell number as a measure of the ATP in a cell culture. 1,000-10,000 human tumor cells (of multiple histotypes) were plated in 100 μL of growth medium (10% (v/v) FBS in DMEM) in white, collagen coated 96-well plates (Biocoat) and allowed to adhere overnight at 37° C. in a 5% CO2 incubator. All test inhibitors were prepared in DMSO. For EC50 determinations, 1000× inhibitor stocks were prepared from a 10 mM master stock by serial dilution in DMSO and subsequently diluted in fresh growth medium to the desired inhibitor concentration. The growth medium was removed by aspiration and replaced with fresh medium containing inhibitors. […]
After 72 hours, the plates were removed from the incubator and equilibrated to room temperature for 30 minutes. […] Plates were incubated in the dark for 10 minutes at room temperature before reading luminescence on a SpectraMax M5 luminometer. Results are expressed as % inhibition relative to control cells (DMSO only). EC50 values were calculated via non-linear regression using GraphPad Prism data analysis software.

[2] = target: PIM-1 (Homo sapiens, UniProt P11309); experiment: Radiometric HotSpot kinase assay, PIM-1; format: biochemical; settings: 1 μM compound, 10 μM ATP
Chain of PIM-1 (P11309 whole entry): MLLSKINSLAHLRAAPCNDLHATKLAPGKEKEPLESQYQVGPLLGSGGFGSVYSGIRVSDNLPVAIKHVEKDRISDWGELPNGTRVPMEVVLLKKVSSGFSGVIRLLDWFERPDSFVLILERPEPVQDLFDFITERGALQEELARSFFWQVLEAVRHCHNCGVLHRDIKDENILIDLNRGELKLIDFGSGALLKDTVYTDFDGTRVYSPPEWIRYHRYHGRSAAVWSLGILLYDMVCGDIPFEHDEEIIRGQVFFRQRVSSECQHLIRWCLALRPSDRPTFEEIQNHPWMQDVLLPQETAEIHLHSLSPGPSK
Description: (§1) Kinase Profiling: The inhibitory activity of the PI3K inhibitor compounds of the invention against 250 protein kinases was determined via the radiometric HotSpot Kinase Profiling (Reaction Biology Corporation, Malvern, Pa.). Compounds were profiled at a final concentration of 1 μM compound against recombinant protein kinases in the presence of 10 μM ATP and data were expressed as percent inhibition. IC50 and/or percent inhibition at 1 μM compound values were determined for select compounds against a subset of kinases (MELK, MNK1, MNK2, mTOR, PIM-1. TRKC, and PDGFRα(D842V)).
(§2) Compounds of the invention were assayed against the select kinases using the KinaseGLO assay (MELK) or the radiometric assay (PIM, TRKC, PDGFRα(D842V), MNK1 and mTOR). IC50 values were determined using 8-10 point half-log dose dilutions and calculated via nonlinear regression analysis using Graphpad Prism data analysis software.

[3] = target: TRKC (Homo sapiens, UniProt Q16288); experiment: Radiometric HotSpot kinase assay, TRKC; format: biochemical; settings: 1 μM compound, 10 μM ATP
Chain of TRKC (Q16288 32-839): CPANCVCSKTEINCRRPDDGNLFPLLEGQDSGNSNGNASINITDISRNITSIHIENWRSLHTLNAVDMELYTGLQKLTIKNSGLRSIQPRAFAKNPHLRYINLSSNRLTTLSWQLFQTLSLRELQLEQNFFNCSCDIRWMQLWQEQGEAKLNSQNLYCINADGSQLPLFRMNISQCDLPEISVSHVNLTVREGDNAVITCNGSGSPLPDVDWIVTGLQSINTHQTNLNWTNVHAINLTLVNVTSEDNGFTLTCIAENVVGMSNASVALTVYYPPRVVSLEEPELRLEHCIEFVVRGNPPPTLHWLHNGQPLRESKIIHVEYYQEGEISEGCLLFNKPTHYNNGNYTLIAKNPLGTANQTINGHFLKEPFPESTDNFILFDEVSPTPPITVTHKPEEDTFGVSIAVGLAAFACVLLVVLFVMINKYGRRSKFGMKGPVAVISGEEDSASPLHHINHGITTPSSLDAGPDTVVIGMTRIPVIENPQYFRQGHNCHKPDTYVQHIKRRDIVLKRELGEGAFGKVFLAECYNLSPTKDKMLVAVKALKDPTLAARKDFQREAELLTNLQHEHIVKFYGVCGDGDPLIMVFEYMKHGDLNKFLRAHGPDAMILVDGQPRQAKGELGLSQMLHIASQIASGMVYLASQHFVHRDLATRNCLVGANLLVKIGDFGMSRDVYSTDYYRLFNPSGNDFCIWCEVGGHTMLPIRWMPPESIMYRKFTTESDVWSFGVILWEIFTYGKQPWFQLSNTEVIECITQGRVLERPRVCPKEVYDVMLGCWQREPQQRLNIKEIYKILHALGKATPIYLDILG
Description: as §1, §2

[4] = target: PDGFRα(D842V) (Homo sapiens, UniProt P16234, D842V); experiment: Radiometric HotSpot kinase assay, PDGFRα(D842V); format: biochemical
Chain of PDGFRα(D842V) (P16234 24-1089 D842V): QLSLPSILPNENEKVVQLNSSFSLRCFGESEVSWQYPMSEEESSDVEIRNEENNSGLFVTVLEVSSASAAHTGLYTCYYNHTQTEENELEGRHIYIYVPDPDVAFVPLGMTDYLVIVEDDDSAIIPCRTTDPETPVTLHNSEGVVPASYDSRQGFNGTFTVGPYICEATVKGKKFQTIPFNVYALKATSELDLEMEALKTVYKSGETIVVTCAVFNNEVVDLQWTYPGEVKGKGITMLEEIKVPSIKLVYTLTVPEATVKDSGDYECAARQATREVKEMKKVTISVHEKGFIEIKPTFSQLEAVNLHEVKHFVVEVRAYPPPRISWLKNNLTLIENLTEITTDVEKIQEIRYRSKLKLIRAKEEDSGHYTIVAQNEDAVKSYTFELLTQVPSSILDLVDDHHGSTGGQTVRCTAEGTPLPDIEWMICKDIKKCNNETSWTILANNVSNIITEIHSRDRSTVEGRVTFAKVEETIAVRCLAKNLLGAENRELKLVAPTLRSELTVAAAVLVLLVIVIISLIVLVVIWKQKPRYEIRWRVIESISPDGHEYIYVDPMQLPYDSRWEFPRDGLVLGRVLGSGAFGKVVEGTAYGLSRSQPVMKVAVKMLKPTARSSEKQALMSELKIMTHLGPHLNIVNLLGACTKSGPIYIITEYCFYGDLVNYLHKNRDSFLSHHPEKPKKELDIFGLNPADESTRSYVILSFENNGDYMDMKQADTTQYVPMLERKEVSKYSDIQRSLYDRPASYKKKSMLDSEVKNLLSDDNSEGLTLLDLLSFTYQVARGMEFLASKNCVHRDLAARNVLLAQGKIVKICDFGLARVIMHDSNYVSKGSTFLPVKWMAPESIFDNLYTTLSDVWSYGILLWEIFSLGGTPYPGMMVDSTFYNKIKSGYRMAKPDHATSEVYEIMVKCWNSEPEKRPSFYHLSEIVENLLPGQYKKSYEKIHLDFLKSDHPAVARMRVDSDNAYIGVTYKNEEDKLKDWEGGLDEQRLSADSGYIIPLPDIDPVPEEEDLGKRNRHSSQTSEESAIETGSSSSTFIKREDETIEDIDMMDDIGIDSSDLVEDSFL
Description: as §1, §2

IC50 [1] [nM] | inhibition at 1 µM [2] [%] | inhibition at 1 µM [3] [%] | IC50 [4] [nM] | SMILES
295 |  |  |  | CC(C)(C#N)c1ccc(-c2n[nH]c3cnc4ccc(-c5cnc6ccccc6c5)cc4c23)cc1 [Compound 1078, 2-methyl-2-(4-(8-(quinolin-3-yl)-3H-pyrazolo[3,4-c]quinolin-1-yl)phenyl)propanenitrile]
470 | 85 to 95 | > 97 |  | CC(C)(C#N)c1ccc(-c2n[nH]c3cnc4ccc(-c5cccnc5)cc4c23)cc1 [Compound 1107, 2-methyl-2-(4-(8-(pyridin-3-yl)-3H-pyrazolo[3,4-c]quinolin-1-yl)phenyl)propanenitrile]
 | 60 to 85 | > 80 | > 100 | CC(C)(C#N)c1ccc(-c2n[nH]c3cnc4ccc(-c5ccc6ncccc6c5)cc4c23)cc1 [Compound 1110, 2-methyl-2-(4-(8-(quinolin-6-yl)-3H-pyrazolo[3,4-c]quinolin-1-yl)phenyl)propanenitrile]
